Patent publication US20160229835A1, “NOVEL PYRIDYLOXYACETYL TETRAHYDROISOQUINOLINE COMPOUNDS USEFUL AS NAMPT INHIBITORS” (ELI LILLY AND COMPANY, priority 2013, published 2016)

Legend:
[1] = test system: NCI-H1155 (lung cancer) cells; assay: Cell Viability Assay, NCI-H1155; type: cell-based; settings: Homo sapiens, 72 hours
Procedure: (§1) The purpose of this assay is to measure the ability of a compound to reduce viability of different cancer cells dependent on the NAMPT-mediated NAD^+ formation in vitro. HCC1937 (breast cancer) cells are cultured in RPMI-1640 supplemented with 10% FBS. Calu-6 (lung cancer) cells and MCF-7 (breast cancer) cells are cultured in Minimum Essential Medium (MEM) (Gibco11095) supplemented with 1 mM sodium pyruvate (Gibco 11360), 1% Non-Essential Amino Acids Solution (100×; Gibco 11140) and 10% FBS. NCI-H1155 (lung cancer) cells are cultured in Dulbecco's Modified Eagle Medium (DMEM) (Gibco 11965) with 10% FBS. […] Cell viability is analyzed by using an assay kit (CYTOTOX-GLO™ Cytotoxicity Assay kit, Promega) according to the manufacturer's instructions as follows. […] Luminescence is measured using a Wallac Victor3 V 1420 Multilabel Counter (Perkin Elmer), referred to as dead cell luminescence. […] After the plate is incubated at room temperature for 15 minutes, luminescence is measured using the plate reader, referred to as total luminescence. Viable cell luminescence (CPS) is calculated by subtracting the dead cell luminescence from the total luminescence Inhibition of cell viability is calculated based on the equation as follows:
(§2) Inhibition (%)=(CPSnegative−CPSsample)/(CPSnegative−CPSpositive)*100 where CPS is the luminescence of viable cells.

[2] = test system: Calu-6 (lung cancer) cells; assay: Cell Viability Assay, Calu-6; type: cell-based; settings: Homo sapiens, 72 hours
Procedure: as §1, §2

[3] = test system: HCC1937 (breast cancer) cells; assay: Cell Viability Assay, HCC1937; type: cell-based; settings: Homo sapiens, 72 hours
Procedure: as §1, §2

[4] = test system: A2780 tumor model; assay: Efficacy in Xenograft Tumor Models, A2780; type: in vivo; settings: nude mice, 4-day-on and 3-day-off schedule for 17 days
Procedure: The purpose of this assay is to measure reduction in tumor volume in response to test compound administration. A2780 and NCI-H1155 (NSCLC) cells are grown as described above for IVTI studies. Cells are harvested and injected subcutaneously onto the rear flank of nude mice. When tumors are established (7-21 days after implant), animals are randomized and grouped into control and test groups (7 animals/group). The test compound is formulated in 20% of CAPTISOL® and 25 mM of phosphate buffer, pH 2. Test compound and vehicle (20% of CAPTISOL® and 25 mM of phosphate buffer, pH 2 without compound) are administered by oral gavage. Tumor response is determined by tumor volume measurement (caliper) performed twice a week during the course of treatment and reported as percent of tumor volume of each treatment group divided by tumor volume of the vehicle control group. […] For example, Example 1 in H1155 tumor model, when dosed at 10 mg/kg (twice a day (BID) on a 4-day-on and 3-day-off schedule for 17 days, a T/C of 5.5 (P value<0.001 based on T-test) is achieved; when dosed at 20 mg/kg on the same schedule, a T/C of −81.1 (P value<0.001 based on T-test) is achieved. Example 2 in H1155 tumor model, when dosed at 8 mg/kg (twice a day (BID) on a 4-day-on and 3-day-off schedule for 17 days, a T/C of 5.2 (P value<0.001 based on T-test) is achieved; when dosed at 16 mg/kg on the same schedule, a T/C of −82.7 (P value<0.001 based on T-test) is achieved. Example 1 in A2780 tumor model, when dosed at 10 mg/kg (twice a day (BID) on a 4-day-on and 3-day-off schedule for 17 days, a T/C of 41.7 (P value<0.007 based on T-test) is achieved; when dosed at 20 mg/kg on the same schedule, a T/C of 2.4 (P value<0.001 based on T-test) is achieved.

| SMILES | IC50 [1] [nM] | IC50 [2] [nM] | IC50 [3] [nM] | T/C (tumor volume of treatment group divided by vehicle control group) ([4]; 10 mg/kg BID oral) [%] | T/C (tumor volume of treatment group divided by vehicle control group) ([4]; 20 mg/kg BID oral) [%] | T/C (tumor volume of treatment group divided by vehicle control group) ([4]; 8 mg/kg BID oral) [%] | T/C (tumor volume of treatment group divided by vehicle control group) ([4]; 16 mg/kg BID oral) [%] |
| --- | --- | --- | --- | --- | --- | --- | --- |
| CC(C)(O)CS(=O)(=O)Nc1ccc2c(c1)CCN(C(=O)COc1cccnc1)C2 [Example 1, 2-Hydroxy-2-methyl-N-[2-[2-(3-pyridyloxy)acetyl]-3,4-dihydro-1H-isoquinolin-6-yl]propane-1-sulfonamide] | 18 ± 3 | 49 ± 8 | 333 ± 32 | 41.7 | 2.4 | – | – |
| COCCS(=O)(=O)Nc1ccc2c(c1)CCN(C(=O)COc1cccnc1)C2 [Example 2, 2-Methoxy-N-[2-[2-(3-pyridyloxy)acetyl]-3,4-dihydro-1H-isoquinolin-6-yl]ethanesulfonamide] | 37 ± 16 | 121 ± 29 | 1040 ± 664 | – | – | 40.5 | 1.5 |
